From publication PMC3003761 (ACS chemical biology, 2010)
Like-named read-outs stand apart in the source and are kept apart here.

How the values were obtained:
[1] = target: Shaker-IR KV channel (Drosophila melanogaster, UniProt P08510, DEL6-46); experiment: cell-based
[2] = in vivo; details: male, CD-1, mouse, ip, 3 mg/kg
[3] = tested on: rat phrenic nerve-hemidiaphragm preparations; details: cited from earlier work
[4] = tested on: BoNT/A; type: in vivo, mouse; details: n = 10
[5] = mouse, in vivo, ip, 3 mg/kg
[6] = mouse, in vivo
[7] = tested on: serotype A botulinum neurotoxin-induced paralysis of mouse phrenic nerve-hemidiaphragm preparations

| Compound | Hill coefficient [1] | IC50 [1] [µM] | Tmax [2] [min] | half-life [2] [min] | Rescue of BoNT/A intoxicated mice [4] | toxicity (distress) after compound alone [6] | Ability to reverse BoNT/A-induced muscle paralysis [7] | further results |
| --- | --- | --- | --- | --- | --- | --- | --- | --- |
| Nc1ccncc1N [Compound 3, 3,4 diaminopyridine, reference compound] | 1.04 ± 0.18 | 26.7 ± 4 | 30 | 20.4 | – | – | – | – |
| C[n+]1ccc(N)c(N)c1 [Compound 4, 3,4-diamino-1-methylpyridinium] | – | – | – | – | – | – | – | activity in rat phrenic nerve-hemidiaphragm preparations [3]: inactive |
| Nc1cncc(N)c1N [Compound 5, 3,4,5-Triaminopyridine] | 1.09 ± 0.13 | 697 | 30 | 18.6 | as effective as 3,4-DAP | no distress was observed | – | brain exposure [5]: no detectable brain exposure |
| c1cc2nc[nH]c2cn1 [Compound 7, 5-azabenzimidazole] | – | – | – | – | – | – | unable to reverse BoNT/A-induced muscle paralysis | – |
| C#CC[n+]1ccc(N)c(N)c1 [Compound 11, 3,4-diamino-1-(prop-2-ynyl)pyridinium] | 1.28 ± 0.34 | – | – | – | low efficacy | no distress was observed | – | AUC(0-infinity) (plasma) [5]: 620 ng·h/mL; Cmax (plasma) [5]: 402 ng/mL; Tmax (plasma) [5]: 30 min; brain exposure as percentage of the plasma exposure [5]: 13%; plasma half-life [5]: 72 min; IC50 ([1]; read-out: K0.5 (compound concentration required to achieve 50% inhibition)): 22.2 ± 4.3 µM |
| CC[N+](CC)(CC)CCCc1ccccc1 [Compound 12, triethyl-3-phenylpropylammonium] | – | – | – | – | – | – | apparent neurotoxicity of the compound 12 prevented determination | – |
